Here are results for two compounds from ChEMBL document CHEMBL1144356 (J Med Chem, 2005).

Assay [1] deals with Canis familiaris. The experiment in a line: Effect on cholesterol lowering in male Beagle dog at an oral dose of 50 mkd for 10 days. Format: functional, Canis lupus familiaris.
The test system of assay [2] is Canis familiaris. The experiment in a line: Effect on cholesterol lowering in male Beagle dog at an oral dose of 50 mkd for 7 days. Format: functional, Canis lupus familiaris.
Assay [3] relates to Canis familiaris. The assay can be described thus: Effect on cholesterol lowering in male Beagle dog at an oral dose of 50 mkd for 3 days. It is filed as functional, Canis lupus familiaris.
The subject of assay [4] is Canis familiaris. The assay can be described thus: Effect on cholesterol lowering in male Beagle dog at an oral dose of 50 mkd for 15 days. Format: functional, Canis lupus familiaris.
The subject of assay [5] is Cricetinae gen. sp. The assay can be described thus: Effect at an oral dose of 100 mg/kg/day for 14 days on serum triglyceride level of hamster. It is filed as functional, Cricetulus griseus.
In assay [6] the test system is Cricetinae gen. sp. The experiment in a line: Effect at an oral dose of 100 mg/kg/day for 14 days on serum cholesterol level of hamster. It is filed as functional, Cricetulus griseus.
Assay [7] concerns Canis familiaris. The experiment in a line: Effect on cholesterol lowering in male Beagle dog at an oral dose of 4 mkd for 10 days. Format: functional, Canis lupus familiaris.
For assay [8], the system named is Canis familiaris. The assay can be described thus: Effect on cholesterol lowering in male Beagle dog at an oral dose of 4 mkd for 7 days. Format: functional, Canis lupus familiaris.
Assay [9] deals with Canis familiaris. The assay can be described thus: Effect on cholesterol lowering in male Beagle dog at an oral dose of 4 mkd for 3 days. It is filed as functional, Canis lupus familiaris.
The test system of assay [10] is Canis familiaris. The experiment in a line: Effect on cholesterol lowering in male Beagle dog at an oral dose of 4 mkd for 15 days. Format: functional, Canis lupus familiaris.

As to `CC(C)OC(=O)C(C)(C)Oc1ccc(C(=O)c2ccc(Cl)cc2)cc1` [FENOFIBRATE], the TC in the assay with Canis familiaris [1] was -5.9%; with Canis familiaris [2], -5.5%; in the assay with Canis familiaris [3], -2.2%; with Canis familiaris [4], -12.3%; in the assay on Cricetinae gen. sp. [6], -28.55%. The TG with Cricetinae gen. sp. [5] is -24.08%.
For `CCC(C)(C)C(=O)O[C@H]1C[C@@H](C)C=C2C=C[C@H](C)[C@H](CC[C@@H]3C[C@@H](O)CC(=O)O3)[C@H]21` [SIMVASTATIN], the TC with Canis familiaris [7] is reported as -9.9%; with Canis familiaris [8] it was -13.3%; in the assay on Canis familiaris [9] it was -7.8%; in the assay on Canis familiaris [10], -17.1%.
